This note sets out measurements from patent US10800792B2, “Inhibitors of Bruton's tyrosine kinase and method of their use” (JANSSEN PHARMACEUTICA NV, priority 2015, dated 2020).

The structures appear in SMILES notation.

In this assay the target is unphosphorylated-BTK kinase domain (UP-BTK), GST-tagged human BTK (389-659aa) (Homo sapiens (Human), UniProt Q06187). Description: BTK kinase Lanthascreen binding assay. The following applies: unphosphorylated-BTK kinase domain, 50 nM Tracer 236, 60 minutes, pIC50 = negative log of the IC50 in molar. Summed up:
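Values are pIC50, i.e. negative log of IC50 in molar, derived from concentration–response fitting. Each compound competes with a fluorescently labelled tracer for the unphosphorylated kinase domain.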
A general note: In TR-FRET formats the signal depends on donor and acceptor labels being close together.

unphosphorylated-BTK kinase domain (UP-BTK), GST-tagged human BTK (389-659aa), sequence (Q06187 389-659): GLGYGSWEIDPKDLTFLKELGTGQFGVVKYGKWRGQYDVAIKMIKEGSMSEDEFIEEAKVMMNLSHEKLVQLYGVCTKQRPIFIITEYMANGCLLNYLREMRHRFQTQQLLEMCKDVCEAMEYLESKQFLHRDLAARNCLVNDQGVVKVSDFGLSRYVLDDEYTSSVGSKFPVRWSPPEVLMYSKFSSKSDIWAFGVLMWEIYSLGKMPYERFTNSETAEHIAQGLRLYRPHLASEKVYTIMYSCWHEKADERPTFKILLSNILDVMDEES

Take `CNC/C=C/C(=O)N1CC[C@@H](NC(=O)c2sc3nccc4c3c2NC(=O)N4c2ccc(Oc3ccccc3)cc2C)C1` (single isomer, unassigned) [Example 492, (R,E)-5-(*S)-(2-Methyl-4-phenoxyphenyl)-N-(1-(4-(methylamino)but-2-enoyl)pyrrolidin-3-yl)-4-oxo-4,5-dihydro-3H-1-thia-3,5,8-triazaacenaphthylene-2-carboxamide]: the “BTK_I_binding pIC50” value stood at 8.0. On to `Cc1cc(Oc2ccccc2)ccc1N1C(=O)Nc2c(C(=O)N[C@@H]3CCN(C)C3)sc3nccc1c23` (single isomer, unassigned) [Example 493, (R)-5-(*S)-(2-Methyl-4-phenoxyphenyl)-N-(1-methylpyrrolidin-3-yl)-4-oxo-4,5-dihydro-3H-1-thia-3,5,8-triazaacenaphthylene-2-carboxamide], for which the “BTK_I_binding pIC50” value is 6.9.

For `Cc1cc(Oc2ccccc2)ccc1N1C(=O)Nc2c(C(=O)N[C@@H]3CCN(C(=O)CCS(C)(=O)=O)C3)sc3nccc1c23` (single isomer, unassigned) [Example 494, (R)-5-(*S)-(2-Methyl-4-phenoxyphenyl)-N-(1-(3-(methylsulfonyl)propanoyl)pyrrolidin-3-yl)-4-oxo-4,5-dihydro-3H-1-thia-3,5,8-triazaacenaphthylene-2-carboxamide], the “BTK_I_binding pIC50” value was 8.0.

As to `COCC(=O)N1CCC[C@@H](NC(=O)c2sc3nccc4c3c2NC(=O)N4c2ccc(Oc3ccccc3)cc2C)C1` (single isomer, unassigned) [Example 495, (R)—N-(1-(2-Methoxyacetyl)piperidin-3-yl)-5-(*S)-(2-methyl-4-phenoxyphenyl)-4-oxo-4,5-dihydro-3H-1-thia-3,5,8-triazaacenaphthylene-2-carboxamide], the “BTK_I_binding pIC50” value is on record as 7.5. Still for that read-out and setting: with `C=CC(=O)N1CCC[C@@H](NC(=O)c2sc3nccc4c3c2NC(=O)N4c2ccc(OC3CCC3)cc2C)C1` (single isomer, unassigned) [Example 501, (R)—N-(1-Acryloylpiperidin-3-yl)-5-(*S)-(4-cyclobutoxy-2-methylphenyl)-4-oxo-4,5-dihydro-3H-1-thia-3,5,8-triazaacenaphthylene-2-carboxamide] the figure was 7.9; with `Cc1cc(Oc2ccccc2)ccc1N1C(=O)Nc2c(C(=O)N[C@@H]3CCN(C(=O)/C=C/CN(C)C)C3)sc3nccc1c23` (single isomer, unassigned) [Example 502, (R,E)-N-(1-(4-(Dimethylamino)but-2-enoyl)pyrrolidin-3-yl)-5-(*S)-(2-methyl-4-phenoxyphenyl)-4-oxo-4,5-dihydro-3H-1-thia-3,5,8-triazaacenaphthylene-2-carboxamide], 7.9. Regarding `Cc1cc(Oc2ccccc2)ccc1N1C(=O)Nc2c(C(=O)N[C@@H]3CCCN(C(=O)/C=C/CO)C3)sc3nccc1c23` (single isomer, unassigned) [Example 503, (R,E)-N-(1-(4-Hydroxybut-2-enoyl)piperidin-3-yl)-5-(*S)-(2-methyl-4-phenoxyphenyl)-4-oxo-4,5-dihydro-3H-1-thia-3,5,8-triazaacenaphthylene-2-carboxamide], the “BTK_I_binding pIC50” value turned out to be 7.8. The same measure, in the same setting: with `Cc1cc(Oc2ccccc2)ccc1N1C(=O)Nc2c(C(=O)N[C@@H]3CCCN(C(=O)/C(C#N)=C/C4(C)COC4)C3)sc3nccc1c23` (single isomer, unassigned) [Example 509, (R,EZ)—N-(1-(2-Cyano-3-(3-methyloxetan-3-yl)acryloyl)piperidin-3-yl)-5-(*S)-(2-methyl-4-phenoxyphenyl)-4-oxo-4,5-dihydro-3H-1-thia-3,5,8-triazaacenaphthylene-2-carboxamide] the figure was 7.9; with `Cc1cc(Oc2ccccc2)ccc1N1C(=O)Nc2c(C(=O)N[C@@H]3CCN(C(=O)/C=C/CN)C3)sc3nccc1c23` (single isomer, unassigned) [Example 520, (R,E)-N-(1-(4-Aminobut-2-enoyl)pyrrolidin-3-yl)-5-(*S)-(2-methyl-4-phenoxyphenyl)-4-oxo-4,5-dihydro-3H-1-thia-3,5,8-triazaacenaphthylene-2-carboxamide], 8.1; with `Cc1cc(Oc2ccccc2)ccc1N1C(=O)Nc2c(C(=O)N[C@@H]3CCN(C(=O)/C=C/CO)C3)sc3nccc1c23` (single isomer, unassigned) [Example 522, (R,E)-N-(1-(4-Hydroxybut-2-enoyl)pyrrolidin-3-yl)-5-(*S)-(2-methyl-4-phenoxyphenyl)-4-oxo-4,5-dihydro-3H-1-thia-3,5,8-triazaacenaphthylene-2-carboxamide], 8.0. The same measure, in the same setting: for `CN[C@@H](C)C(=O)N1CCC[C@@H](NC(=O)c2sc3nccc4c3c2NC(=O)N4c2ccc(Oc3ccccc3)cc2C)C1` (single isomer, unassigned) [Example 524, 5-(*S)-(2-Methyl-4-phenoxyphenyl)-N—((R)-1-((S)-2-(methylamino)propanol)piperidin-3-yl)-4-oxo-4,5-dihydro-3H-1-thia-3,5,8-triazaacenaphthylene-2-carboxamide] the value was 7.8; for `C=CS(=O)(=O)N1CCC[C@@H](NC(=O)c2sc3nccc4c3c2NC(=O)N4c2ccc(Oc3ccccc3)cc2C)C1` (single isomer, unassigned) [Example 530, (R)-5-(*S)-(2-Methyl-4-phenoxyphenyl)-4-oxo-N-(1-(vinylsulfonyl)piperidin-3-yl)-4,5-dihydro-3H-1-thia-3,5,8-triazaacenaphthylene-2-carboxamide], 8.0. Turning to `[2H]C([2H])([2H])N1CCC[C@@H](NC(=O)c2sc3nccc4c3c2NC(=O)N4c2ccc(Oc3ccccc3)cc2C)C1` (single isomer, unassigned) [Example 535, (R)-5-(*S)-(2-Methyl-4-phenoxyphenyl)-N-(1-trideuteriomethylpiperidin-3-yl)-4-oxo-4,5-dihydro-3H-1-thia-3,5,8-triazaacenaphthylene-2-carboxamide], where the note is “read-out: BTK_I_binding pIC50 (converted)”, the IC50 is 0.0316 µM.

Regarding `CCS(=O)(=O)N1CCC[C@@H](NC(=O)c2sc3nccc4c3c2NC(=O)N4c2ccc(Oc3ccccc3)cc2C)C1` (single isomer, unassigned) [Example 539, (R)—N-(1-(Ethylsulfonyl)piperidin-3-yl)-5-(*S)-(2-methyl-4-phenoxyphenyl)-4-oxo-4,5-dihydro-3H-1-thia-3,5,8-triazaacenaphthylene-2-carboxamide], the “BTK_I_binding pIC50” value stood at 7.2. On to `Cc1cc(Oc2ccccc2)ccc1N1C(=O)Nc2c(C(=O)N[C@@H]3CCCN(C(C)C)C3)sc3nccc1c23` (single isomer, unassigned) [Example 542, (R)—N-(1-Isopropylpiperidin-3-yl)-5-(*S)-(2-methyl-4-phenoxyphenyl)-4-oxo-4,5-dihydro-3H-1-thia-3,5,8-triazaacenaphthylene-2-carboxamide], for which the “BTK_I_binding pIC50” value is 7.2. Same read-out and setting: with `Cc1cc(Oc2ccccc2)ccc1N1C(=O)Nc2c(C(=O)N[C@@H]3CCN(C(=O)/C=C/CN4C[C@@H]5OCCO[C@@H]5C4)C3)sc3nccc1c23` (single isomer, unassigned) [Example 555, 5-(*S)-(2-Methyl-4-phenoxyphenyl)-4-oxo-N—((R)-1-((E)-4-((4aR,7aS)-tetrahydro-2H-[1,4]dioxino[2,3-c]pyrrol-6(3H)-yl)but-2-enol)pyrrolidin-3-yl)-4,5-dihydro-3H-1-thia-3,5,8-triazaacenaphthylene-2-carboxamide] the figure was 8.1.
